From article PMC10635799, “Analogs of FTY720 inhibit TRPM7 but not S1PRs and exert multimodal anti-inflammatory effects” (The Journal of General Physiology, 2023)
“Also recorded” adds a separate entry of the source. Read-outs that look alike come from different tables or passages of the source. Values belong to the compound of their own block, whether it stands above or below them.

How the values were obtained:
[1] = target: T1, mouse TRPM7 (Mus musculus, UniProt Q923J1); assay: Whole-cell patch clamp of TRPM7 current (IM7) in HEK 293T cells overexpressing mouse TRPM7; assay type: cell-based
T1 construct: expressed in transfected cells; host or cells: HEK 293T cells (CRL-3216; ATCC), transient transfection with jetOPTIMUS, co-transfected eGFP as a separate plasmid
T1 sequence (Q923J1 whole entry): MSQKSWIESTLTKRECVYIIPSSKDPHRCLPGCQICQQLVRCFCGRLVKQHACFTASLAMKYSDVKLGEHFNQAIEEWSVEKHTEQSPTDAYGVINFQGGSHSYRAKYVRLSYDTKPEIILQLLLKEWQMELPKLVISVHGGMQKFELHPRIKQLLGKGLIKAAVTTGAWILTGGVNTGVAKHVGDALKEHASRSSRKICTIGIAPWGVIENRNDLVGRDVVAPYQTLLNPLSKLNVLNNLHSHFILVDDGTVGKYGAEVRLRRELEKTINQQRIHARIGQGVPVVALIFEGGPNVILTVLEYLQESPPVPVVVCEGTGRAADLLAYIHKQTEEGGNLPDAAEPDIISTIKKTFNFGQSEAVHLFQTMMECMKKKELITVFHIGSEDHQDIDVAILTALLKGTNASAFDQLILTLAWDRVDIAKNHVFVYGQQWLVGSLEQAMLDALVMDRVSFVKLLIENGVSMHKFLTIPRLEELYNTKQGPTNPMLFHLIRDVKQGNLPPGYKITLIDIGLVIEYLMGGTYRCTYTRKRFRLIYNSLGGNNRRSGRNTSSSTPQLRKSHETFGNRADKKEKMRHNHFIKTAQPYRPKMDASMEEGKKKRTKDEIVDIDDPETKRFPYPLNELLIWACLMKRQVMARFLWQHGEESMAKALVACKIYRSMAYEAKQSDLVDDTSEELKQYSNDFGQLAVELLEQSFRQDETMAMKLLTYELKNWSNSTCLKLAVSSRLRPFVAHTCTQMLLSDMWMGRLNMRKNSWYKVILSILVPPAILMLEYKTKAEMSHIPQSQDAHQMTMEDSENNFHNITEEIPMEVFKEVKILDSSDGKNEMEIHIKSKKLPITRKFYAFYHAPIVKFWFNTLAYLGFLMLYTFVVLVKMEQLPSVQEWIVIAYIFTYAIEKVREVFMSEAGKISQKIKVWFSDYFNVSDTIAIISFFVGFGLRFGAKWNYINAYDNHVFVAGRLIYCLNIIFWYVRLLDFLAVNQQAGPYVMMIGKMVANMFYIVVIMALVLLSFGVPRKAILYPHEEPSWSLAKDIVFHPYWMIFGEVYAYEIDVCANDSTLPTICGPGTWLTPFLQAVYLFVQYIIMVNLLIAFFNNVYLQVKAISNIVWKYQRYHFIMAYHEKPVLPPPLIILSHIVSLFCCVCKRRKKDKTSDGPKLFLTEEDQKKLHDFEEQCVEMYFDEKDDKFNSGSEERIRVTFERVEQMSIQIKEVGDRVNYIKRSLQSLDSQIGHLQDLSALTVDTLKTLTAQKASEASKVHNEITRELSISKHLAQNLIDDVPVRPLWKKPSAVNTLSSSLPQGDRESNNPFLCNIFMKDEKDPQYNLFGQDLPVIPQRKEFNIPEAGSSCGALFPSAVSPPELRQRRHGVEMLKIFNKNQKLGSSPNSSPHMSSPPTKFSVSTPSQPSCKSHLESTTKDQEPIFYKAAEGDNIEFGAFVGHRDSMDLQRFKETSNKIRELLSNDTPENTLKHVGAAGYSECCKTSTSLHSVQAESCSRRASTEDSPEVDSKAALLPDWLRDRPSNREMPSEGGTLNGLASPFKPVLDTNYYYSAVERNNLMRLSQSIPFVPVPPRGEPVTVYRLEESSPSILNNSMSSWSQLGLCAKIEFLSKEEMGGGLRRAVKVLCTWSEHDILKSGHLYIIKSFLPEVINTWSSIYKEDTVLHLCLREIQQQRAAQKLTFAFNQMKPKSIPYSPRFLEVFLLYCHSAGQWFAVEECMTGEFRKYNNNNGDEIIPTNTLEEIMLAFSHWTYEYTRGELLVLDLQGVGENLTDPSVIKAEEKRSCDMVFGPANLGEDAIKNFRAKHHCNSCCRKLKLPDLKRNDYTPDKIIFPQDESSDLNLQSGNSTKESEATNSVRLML
Description: To overexpress TRPM7, HEK 293T cells were plated at a density of 500,000 cells per well (day 0), transfected at 80–90% confluency (day 1), and were patched 24–36 h after transfection (day 2). TRPM7 overexpression was performed using WT mouse TRPM7 (2.5 µg plasmid DNA; [Desai et al., 2012]) and jetOPTIMUS DNA Transfection Reagent (101000006; Polyplus). To enhance the selection rate of TRPM7-overexpressing cells, eGFP (#22152; Addgene) was included at a 1:10 dilution (0.25 µg) and only GFP-positive cells were patched.
Whole-cell patch clamp electrophysiology was performed as described previously ([Schappe et al., 2022]). Briefly, the external solution contained (in mM) 140 Na-methanesulfonate, 5 Cs-gluconate, 2.5 CaCl2, and 10 HEPES, pH 7.4 (adjusted with NaOH), at an osmolality of 280–290 mOsm/kg. The internal pipette solution contained (in mM) 115 Cs-gluconate, 3 NaCl, 0.75 CaCl2, 10 HEPES, 10 HEDTA, 1.8 Cs4-BAPTA, and 2 Na2ATP, pH 7.3 (adjusted with CsOH), at an osmolality of 273 mOsm/kg. Intracellular free [Ca^2+] was estimated to be ∼100 nM using the online WEBMAXC standard calculator at https://somapp.ucdmc.ucdavis.edu/pharmacology/bers/maxchelator/webmaxc/webmaxcS.htm ([Bers et al., 2010]). Recordings were captured in pCLAMP 9 (Molecular Devices) using a 400-ms ramp protocol from −100 to +100 mV and a holding potential of 0 mV. Sampling was performed at 10 kHz with a 5 kHz low-pass band filter using an Axopatch 200B amplifier (Molecular Devices). All electrophysiology experiments were conducted at RT (∼23°C). […] Similarly, the minimum current for each inhibitor dose is taken as the stable minimum current observed after the drug has had time to exert an effect and after the flow-driven transient increase has subsided.
Data were analyzed using Microsoft Excel, Prism 9.5 (GraphPad Software), and Origin Pro 7.5 (OriginLab). Chemical structures were created using ChemDraw Professional 20.1.1 (PerkinElmer). Electrophysiology traces were plotted using Origin Pro 7.5, and the remaining data were plotted and statistically tested using Prism. Outliers were determined using the robust regression and outlier removal (ROUT) function within Prism. IC50 values were determined by plotting the percentage of maximum current observed as a function of applied drug concentration. A non-linear regression was fit using a standard Hill slope of −1.0 and the model: Y=100/[1+([Inhibitor]/IC50)]. Where appropriate, data are presented as individual values; otherwise the sample sizes and precision measures are indicated in the figure legends. P values of <0.05 were considered statistically significant.

[2] = tested on: BMDMs; assay: LPS-induced inflammation assay in WT and TRPM7 KO BMDMs (qRT-PCR); assay type: cell-based, mice; details: 10 µM VPC4, 10 µM AAL-149, 5 µM FTY720, 30 μM NS8593
Description: All cells were cultured at 37°C with 5% CO2. HEK 293T cells (CRL-3216; ATCC), HeLa cells (CCL-2; ATCC), RAW 264.7 macrophages (TIB-71; ATCC), and BV-2 microglial cells (ABC-TC212S; AcceGen Biotech) were cultured in DMEM (11995065; Gibco) with 10% fetal bovine serum (FBS; Avantor Seradigm Premium Grade Fetal Bovine Serum 97068-085). FBS was heat-inactivated prior to use at 56°C for 30 min. BMDMs were isolated and cultured as previously described ([Schappe et al., 2018]) and differentiated into mature macrophages over 7 d through culture in BMDM media (RPMI 1640, 10% FBS, and 20% L-929 culture supernatant; Gibco).
(§1) RAW 264.7 macrophages or BMDMs were seeded at a density of 250,000 cells per well into a 12-well tissue culture plate in 1 ml of media and left to incubate overnight. The indicated drug or vehicle control was added to each well, and the plate was agitated and left to incubate for 10 min. The cells were then treated with LPS (1 µg/ml) or an equivalent volume of PBS, agitated, and left to incubate for 3 h. Cells were washed with PBS and then RNA isolation was performed using RNeasy Plus Micro Kit (74134; Qiagen). cDNA was produced using GoScript Reverse Transcriptase (A5004; Promega) and a quantitative PCR was performed using SensiFast SYBR (98020; Bioline) and Bio-Rad CFX Connect thermocycler. Each datum represents an individual, biological replicate that is the mean of duplicate technical replicates. Fold-changes are all reported relative to untreated controls for each experiment and were calculated using the ∆∆Ct method, with β2-microglobulin used as the housekeeping gene for each sample. The experiment was performed similarly with BV-2 microglia and alveolar macrophages, except that cells were plated at a density of 100,000 cells per well into a 24-well tissue culture plate with 1 ml of media per well.

[3] = tested on: TRPM7; details: cited from earlier work; for IC50: read-out: IC50 for TRPM7 inhibition
[4] = tested on: small-conductance Ca^2+-activated K^+ (SK) channels; parameters: method as in Diness et al., 2010; details: ref Diness et al., 2010; read-out: IC50 on SK-family channels; cited from earlier work
[5] = tested on: S1P receptors; details: cited from earlier work; for Effect on S1PRs: non-phosphorylated form, ref Qin et al., 2013
[6] = tested on: HeLa cells; assay: LDH-release cytotoxicity assay; assay type: cell-based; details: 24 h
Description: WT HeLa cells were plated at a density of 10,000 cells per well into a 96-well tissue culture microplate (3610; Costar). AAL-149, VPC01091.4, or vehicle at 0.1, 1, 5, 10, and 25 μM was added to cells with media for a final volume of 100 μl and incubated for 24 h. LDH release was quantified using a CyQUANT LDH Cytotoxicity Assay (C20300; Thermo Fisher Scientific) and a FlexStation 3 plate reader using SoftMax […] (Molecular Devices).

[7] = tested on: RAW 264.7 macrophages; assay: LPS-induced inflammatory gene expression (qRT-PCR) in RAW 264.7 macrophages; assay type: cell-based; details: LPS 1 µg/ml for 3 h
Description: as §1, with “μg/ml)” for “µg/ml)”, “([…];” for “(A5004;”, “ΔΔCt” for “∆∆Ct”

[8] = tested on: lymphocytes; parameters: method as in Brinkmann et al., 2002; Zhu et al., 2007; details: ref Brinkmann et al., 2002; Zhu et al., 2007; cited from earlier work
[9] = non-phosphorylated form, ref Qin et al., 2013

- Effect on whole-cell TRPM7 current (IM7) ([1]; 10 µM): inhibited
SMILES: CCCCCCCCc1ccc([C@@H]2CC[C@](N)(CO)C2)cc1 [VPC01091.3, ((1R,3R)-1-amino-3-(4-octylphenyl)cyclopentyl)methanol]

SMILES: c1ccc2c(c1)CCC[C@H]2Nc1nc2ccccc2[nH]1 [NS8593, (R)-N-(benzimidazol-2-yl)-1,2,3,4-tetrahydro-1-naphtylamine]
- LPS-induced IL-1β expression in TRPM7 KO BMDMs [2]: able to suppress
- IC50 ([3]; ref Chubanov et al., 2012): 1600 nM
- IC50 [4]: 420 to 730 nM

SMILES: CCCCCCCCc1ccc(CCC(N)(CO)CO)cc1 [FTY720, fingolimod]
- Effect on whole-cell TRPM7 current (IM7) ([1]; 5 µM): inhibited; also recorded: able to inhibit
- LPS-induced IL-1β expression in TRPM7 KO BMDMs [2]: able to suppress
- IC50 [3, 9]: 720 nM
- Effect on S1PRs [5]: no effect

SMILES: CCCCCCCOc1ccc(CC[C@](C)(N)CO)cc1 [AAL-149, (2S)-2-amino-4-(4-heptoxyphenyl)-2-methylbutan-1-ol]
- IC50 [1]: 1080 nM
- Cytotoxicity (LDH release) ([6]; dosages up to 10 µM): did not result in any significant cytotoxicity
- Mean cytotoxicity (LDH release) ([6]; each dose up to 25 µM): < 5%
- LPS-stimulated IL-1β gene expression ([7]; 10 µM pretreatment): completely abrogated
- LPS-induced IL-1β expression in TRPM7 KO BMDMs [2]: able to suppress
- Activity at S1P receptors ([5]; ref Brinkmann et al., 2002, Zhu et al., 2007): not active
- Lymphopenia when administered to mice [8]: do not evoke lymphopenia

SMILES: CCCCCCCCCCCCC/C=C/[C@@H](O)[C@@H](N)COP(=O)(O)O [S1P, sphingosine-1-phosphate]
- Effect of phosphorylated forms on IM7 ([3]; ref Qin et al., 2013): do not inhibit

SMILES: CCCCCCCCCCCCC/C=C/[C@@H](O)[C@@H](N)CO [sphingosine, D-erythro-sphingosine, reference compound]
- IC50 [3, 9]: 590 nM
- Effect on S1PRs [5]: no effect

SMILES: C=C1CC/C=C(\C)CC[C@@H]2C([C@H](C/C=C(\C)COC(C)=O)OC(C)=O)=CO[C@H](OC(C)=O)[C@@H]12 [Waixenicin A]
- Time to suppress ITRPM7 ([3]; 10 μM, ref Zierler et al., 2011): up to 200 s
- IC50 ([3]; Mg^2+-free conditions, ref Zierler et al., 2011): 7000 nM
- IC50 ([3]; recording conditions that limit the development of TRPM7 currents, ref Zierler et al., 2011): 16 nM

- Effect on whole-cell TRPM7 current (IM7) ([1]; 10 µM): inhibited
SMILES: CCCCCCCCc1ccc([C@H]2CC[C@](N)(CO)C2)cc1 [VPC01091.1, ((1R,3S)-1-amino-3-(4-octylphenyl)cyclopentyl)methanol]

SMILES: CCCCCCCCc1ccc([C@H]2CC[C@@](N)(COP(=O)(O)O)C2)cc1 [VPC01091.2-P, ((1S,3S)-1-amino-3-(4-octylphenyl)cyclopentyl)methyl dihydrogen phosphate]
- Effect on whole-cell TRPM7 current (IM7) ([1]; 10 µM): negligible effect; also recorded: no effect
- LPS-stimulated IL-1β gene expression ([7]; pretreatment, concentration not given): no significant inhibition

- IC50 ([1]; peak current at +100 mV, HEK 293T overexpressing mouse TRPM7, Hill slope -1.0, read-out: IC50 for inhibition of TRPM7 current (IM7)): 3380 nM
SMILES: CCCCCCCCCCCCC/C=C/[C@H](O)[C@@H](N)CO [L-threo-sphingosine, L-threo-(2S,3S)-sphingosine, reference compound]
